Marks after values point to notes of the source that are not given here. Residues, ends and D or L forms follow the SMILES beside them.
Assays:
Assay type in all cases: in vivo
[1] = AK added at low levels to solutions containing KCl, perceived bitter aftertaste; details: 1 to 5 mg/100 ml
Protocol: The level of AK used was 1 to 5 mg/100 ml, which is equivalent in sweetness contribution to between 0.2% and 1% sucrose. This characteristic is specific to AK, and is not noted when […].

[2] = Effect of tannic acid on potassium-containing beverages (taste scores); details: for Aftertaste / Bitter / Salt: 1.26% KCl beverage, scale 0 to 8
Excerpt: The effect of tannic acid on potassium-containing beverages was studied.

[3] = Expert panel evaluation of taste modifiers on taste of KCl solutions; details: 1.26% KCl, score 0-8
Protocol: Additional testing was conducted, comparing the absence of taste modifiers with the three taste modifiers of the invention, both separately, and in combinations (AK and glycyrrhizin) (AK and tannic acid) (glycyrrhizin and tannic acid). […] In this study, again, 1.26% KCl was prepared, and used as the test medium for all experiments. The aqueous solution was evaluation by an expert panel for each of the taste attributes. The panel consisted of eight individuals who were screened for their taste acuity and trained in the use of the score sheet. The score sheet employed by the panel appears as Table III hereto.

[4] = Effect of glycyrrhizin on potassium-containing beverages (taste scores); details: for effect on aftertaste of KCl: 20-40 mg/100 cc, beverage containing 2.52% KCl by weight; for Bitter / Metallic / Salt: 2.52% KCl beverage, scale 0 to 8
Excerpt: The effect of glycyrrhizin on potassium-containing beverages was studied.

For `COC(=O)[C@H](Cc1ccccc1)NC(=O)[C@@H](N)CC(=O)O` [aspartame] (HELM PEPTIDE1{D.F.[CO[*:1]]}$$$$V2.0), the “effect on perceived bitter aftertaste of KCl solutions” value (“effect on perceived bitter aftertaste” for short) [1] was “not noted”.
In the case of `O=C(OC[C@H]1O[C@@H](OC(=O)c2cc(O)c(O)c(OC(=O)c3cc(O)c(O)c(O)c3)c2)[C@H](OC(=O)c2cc(O)c(O)c(OC(=O)c3cc(O)c(O)c(O)c3)c2)[C@@H](OC(=O)c2cc(O)c(O)c(OC(=O)c3cc(O)c(O)c(O)c3)c2)[C@@H]1OC(=O)c1cc(O)c(O)c(OC(=O)c2cc(O)c(O)c(O)c2)c1)c1cc(O)c(O)c(OC(=O)c2cc(O)c(O)c(O)c2)c1` [tannic acid], the Aftertaste ([2]; +5 mg/100 cc tannic acid) is reported as 1.0, the Bitter ([2]; +5 mg/100 cc tannic acid) is reported as 1.0 and the Salt ([2]; +5 mg/100 cc tannic acid) is reported as 1.5. It also gave an Aftertaste ([2]; +10 mg/100 cc tannic acid) of 1.0, a Bitter ([2]; +10 mg/100 cc tannic acid) of 1.0 and a Salt ([2]; +10 mg/100 cc tannic acid) of 1.0. It also gave an Aftertaste ([2]; +50 mg/100 cc tannic acid) of 1.0, a Bitter ([2]; +50 mg/100 cc tannic acid) of 2.5 and a Salt ([2]; +50 mg/100 cc tannic acid) of 1.5. The “effect on bitter aftertaste and salty taste” value ([2]; beverage containing 1.26% KCl) was “reduces the level of bitter aftertaste without increasing the salty taste”, the “effect on aftertaste of KCl” value ([2]; levels as low as 5 mg/100 cc, beverage containing 1.26% KCl by weight) was “effective in reducing and eliminating the aftertaste of KCl” and the Bitter ([3]; modifier 1.0 mg/100 cc) was 3.0*. For the same compound, the Other ([3]; modifier 1.0 mg/100 cc) was 3.3*, the Salt ([3]; modifier 1.0 mg/100 cc) was 3.3 and the Sour ([3]; modifier 1.0 mg/100 cc) was 0.0. The Sweet ([3]; modifier 1.0 mg/100 cc) was 0.0, the Bitter ([3]; modifier 5.0 mg/100 cc) was 2.0* and the Other ([3]; modifier 5.0 mg/100 cc) was 3.0*. The Salt ([3]; modifier 5.0 mg/100 cc) was 3.8, the Sour ([3]; modifier 5.0 mg/100 cc) was 0.0 and the Sweet ([3]; modifier 5.0 mg/100 cc) was 0.0. For the same compound, the Bitter ([3]; modifier 10.0 mg/100 cc) was 2.0*, the Other ([3]; modifier 10.0 mg/100 cc) was 2.0* and the Salt ([3]; modifier 10.0 mg/100 cc) was 2.0. For the same compound, the Sour ([3]; modifier 10.0 mg/100 cc) was 0.0 and the Sweet ([3]; modifier 10.0 mg/100 cc) was 0.0.
For `O=C1NS(=O)(=O)c2ccccc21` [saccharin], the “effect on perceived bitter aftertaste” value [1] was “not noted”.
In the case of `CC1=CC(=O)NS(=O)(=O)O1` [Acesulfame-K, acesulfame potassium], the “effect on perceived bitter aftertaste” value [1] is reported as “reduced the perceived bitter aftertaste”, the Bitter ([3]; modifier 2.5 mg/100 cc) is reported as 3.0* and the Other ([3]; modifier 2.5 mg/100 cc) is reported as 2.8*. The Salt ([3]; modifier 2.5 mg/100 cc) was 2.8, the Sour ([3]; modifier 2.5 mg/100 cc) was 0.0 and the Sweet ([3]; modifier 2.5 mg/100 cc) was 0.0. The Bitter ([3]; modifier 5.0 mg/100 cc) was 2.3*, the Other ([3]; modifier 5.0 mg/100 cc) was 2.2* and the Salt ([3]; modifier 5.0 mg/100 cc) was 2.3. For the same compound, the Sour ([3]; modifier 5.0 mg/100 cc) was 0.0, the Sweet ([3]; modifier 5.0 mg/100 cc) was 0.0 and the Bitter ([3]; modifier 7.5 mg/100 cc) was 1.8*. The Other ([3]; modifier 7.5 mg/100 cc) was 0.5*, the Salt ([3]; modifier 7.5 mg/100 cc) was 1.5* and the Sour ([3]; modifier 7.5 mg/100 cc) was 0.0. The Sweet ([3]; modifier 7.5 mg/100 cc) was 1.3.
With `CC1(C)[C@@H](O[C@H]2O[C@H](C(=O)O)[C@@H](O)[C@H](O)[C@H]2O[C@@H]2O[C@H](C(=O)O)[C@@H](O)[C@H](O)[C@H]2O)CC[C@]2(C)[C@H]3C(=O)C=C4[C@@H]5C[C@@](C)(C(=O)O)CC[C@]5(C)CC[C@@]4(C)[C@]3(C)CC[C@@H]12` [glycyrrhizin] the “effect on aftertaste of KCl” value [4] was “effective in reducing the aftertaste of KCl”, the “effect on aftertaste of KCl” value ([4]; listed as Glycyrrhizin) was “effective in reducing the bitter and metallic aftertaste of KCl” and the Bitter ([4]; +20 mg/100 cc glycyrrhizin) was 2.5. It also gave a Metallic ([4]; +20 mg/100 cc glycyrrhizin) of 2.0, a Salt ([4]; +20 mg/100 cc glycyrrhizin) of 2.5 and a Bitter ([4]; +40 mg/100 cc glycyrrhizin) of 2.5. For the same compound, the Metallic ([4]; +40 mg/100 cc glycyrrhizin) was 2.0, the Salt ([4]; +40 mg/100 cc glycyrrhizin) was 2.0 and the Bitter ([3]; modifier 5.0 mg/100 cc) was 2.0*. For the same compound, the Other ([3]; modifier 5.0 mg/100 cc) was 1.0*, the Salt ([3]; modifier 5.0 mg/100 cc) was 3.5 and the Sour ([3]; modifier 5.0 mg/100 cc) was 0.0. For the same compound, the Sweet ([3]; modifier 5.0 mg/100 cc) was 0.0, the Bitter ([3]; modifier 10.0 mg/100 cc) was 3.3* and the Other ([3]; modifier 10.0 mg/100 cc) was 2.0*. It also gave a Salt ([3]; modifier 10.0 mg/100 cc) of 2.3, a Sour ([3]; modifier 10.0 mg/100 cc) of 0.0 and a Sweet ([3]; modifier 10.0 mg/100 cc) of 0.0. For the same compound, the Bitter ([3]; modifier 20.0 mg/100 cc) was 2.3*, the Other ([3]; modifier 20.0 mg/100 cc) was 2.0* and the Salt ([3]; modifier 20.0 mg/100 cc) was 2.0. The Sour ([3]; modifier 20.0 mg/100 cc) was 0.0 and the Sweet ([3]; modifier 20.0 mg/100 cc) was 0.5.
